Measured values published in ChEMBL document CHEMBL5724914, “Linking interpersonal differences in gut microbiota composition and drug biotransformation activity” (2024).

test: (§1) The drug is tested on Z-018 corresponding to pig gut metagenome with ENA study accession number: PRJEB37062 and ENA sample accession number: ERS12561817 for biotransformation under anaerobic condition. The drug concentrations were measured over 9 timepoints collected between 0 and 24 hours of incubation by liquid-chromatography-coupled mass spectrometry (LC–MS); settings: 2 µM
Note: call rule not given here.

Compound	Bacterial Biotransformation
COc1ccc(Cc2nccc3cc(OC)c(OC)cc23)cc1OC [PAPAVERINE]	Compound metabolized
O=C1C(CC[S+]([O-])c2ccccc2)C(=O)N(c2ccccc2)N1c1ccccc1 (stereo unspecified) [SULFINPYRAZONE]	Compound metabolized

test: as §1, with “WLS-027” for “Z-018”, “human” for “pig”, “ERS12561744” for “ERS12561817”; settings: 2 µM

Bacterial Biotransformation	Compound
Compound NOT metabolized	CCOC(=O)[C@H](CCc1ccccc1)N[C@@H](C)C(=O)N1CCC[C@H]1C(=O)O.O=C(O)/C=C\C(=O)O [ENALAPRIL MALEATE]
Compound metabolized	O=C1C(CC[S+]([O-])c2ccccc2)C(=O)N(c2ccccc2)N1c1ccccc1 (stereo unspecified) [SULFINPYRAZONE]

Compound	Bacterial Biotransformation
COc1ccc(Cc2nccc3cc(OC)c(OC)cc23)cc1OC [PAPAVERINE]	Compound metabolized

test: as §1, with “WLS-090” for “Z-018”, “human” for “pig”, “ERS12561753” for “ERS12561817”; settings: 2 µM

Bacterial Biotransformation	Compound
Compound NOT metabolized	CCOC(=O)[C@H](CCc1ccccc1)N[C@@H](C)C(=O)N1CCC[C@H]1C(=O)O.O=C(O)/C=C\C(=O)O [ENALAPRIL MALEATE]
Compound metabolized	O=C1C(CC[S+]([O-])c2ccccc2)C(=O)N(c2ccccc2)N1c1ccccc1 (stereo unspecified) [SULFINPYRAZONE]

Compound	Bacterial Biotransformation
COc1ccc(Cc2nccc3cc(OC)c(OC)cc23)cc1OC [PAPAVERINE]	Compound metabolized

test: as §1, with “Z-021” for “Z-018”, “to” for “to pig gut”, “ERS12561820” for “ERS12561817”; settings: 2 µM

Bacterial Biotransformation	Compound
Compound metabolized	CCOC(=O)[C@H](CCc1ccccc1)N[C@@H](C)C(=O)N1CCC[C@H]1C(=O)O.O=C(O)/C=C\C(=O)O [ENALAPRIL MALEATE]
Compound NOT metabolized	O=C1C(CC[S+]([O-])c2ccccc2)C(=O)N(c2ccccc2)N1c1ccccc1 (stereo unspecified) [SULFINPYRAZONE]

Compound	Bacterial Biotransformation
COc1ccc(Cc2nccc3cc(OC)c(OC)cc23)cc1OC [PAPAVERINE]	Compound metabolized

settings: human gut metagenome, 24 h, 2 µM

Bacterial Biotransformation	Compound
Compound NOT metabolized	CCOC(=O)[C@H](CCc1ccccc1)N[C@@H](C)C(=O)N1CCC[C@H]1C(=O)O.O=C(O)/C=C\C(=O)O [ENALAPRIL MALEATE]
Compound metabolized	O=C1C(CC[S+]([O-])c2ccccc2)C(=O)N(c2ccccc2)N1c1ccccc1 (stereo unspecified) [SULFINPYRAZONE]

Compound	Bacterial Biotransformation
COc1ccc(Cc2nccc3cc(OC)c(OC)cc23)cc1OC [PAPAVERINE]	Compound NOT metabolized

test: as §1, with “WLS-082” for “Z-018”, “human” for “pig”, “ERS12561751” for “ERS12561817”; settings: 2 µM

Bacterial Biotransformation	Compound
Compound NOT metabolized	CCOC(=O)[C@H](CCc1ccccc1)N[C@@H](C)C(=O)N1CCC[C@H]1C(=O)O.O=C(O)/C=C\C(=O)O [ENALAPRIL MALEATE]
Compound metabolized	O=C1C(CC[S+]([O-])c2ccccc2)C(=O)N(c2ccccc2)N1c1ccccc1 (stereo unspecified) [SULFINPYRAZONE]

test: as §1, with “WLS-086” for “Z-018”, “human” for “pig”, “ERS12561752” for “ERS12561817”; settings: 2 µM

Bacterial Biotransformation	Compound
Compound NOT metabolized	CCOC(=O)[C@H](CCc1ccccc1)N[C@@H](C)C(=O)N1CCC[C@H]1C(=O)O.O=C(O)/C=C\C(=O)O [ENALAPRIL MALEATE]
Compound metabolized	O=C1C(CC[S+]([O-])c2ccccc2)C(=O)N(c2ccccc2)N1c1ccccc1 (stereo unspecified) [SULFINPYRAZONE]

Compound	Bacterial Biotransformation
COc1ccc(Cc2nccc3cc(OC)c(OC)cc23)cc1OC [PAPAVERINE]	Compound metabolized

settings: human gut metagenome, 24 h, 2 µM; remark: another data set of the same source

Bacterial Biotransformation	Compound
Compound NOT metabolized	CCOC(=O)[C@H](CCc1ccccc1)N[C@@H](C)C(=O)N1CCC[C@H]1C(=O)O.O=C(O)/C=C\C(=O)O [ENALAPRIL MALEATE]
Compound metabolized	O=C1C(CC[S+]([O-])c2ccccc2)C(=O)N(c2ccccc2)N1c1ccccc1 (stereo unspecified) [SULFINPYRAZONE]

Compound	Bacterial Biotransformation
COc1ccc(Cc2nccc3cc(OC)c(OC)cc23)cc1OC [PAPAVERINE]	Compound metabolized

test: as §1, with “WLS-039” for “Z-018”, “human” for “pig”, “ERS12561746” for “ERS12561817”; settings: 2 µM

Bacterial Biotransformation	Compound
Compound NOT metabolized	CCOC(=O)[C@H](CCc1ccccc1)N[C@@H](C)C(=O)N1CCC[C@H]1C(=O)O.O=C(O)/C=C\C(=O)O [ENALAPRIL MALEATE]
Compound metabolized	O=C1C(CC[S+]([O-])c2ccccc2)C(=O)N(c2ccccc2)N1c1ccccc1 (stereo unspecified) [SULFINPYRAZONE]

Compound	Bacterial Biotransformation
COc1ccc(Cc2nccc3cc(OC)c(OC)cc23)cc1OC [PAPAVERINE]	Compound metabolized

test: as §1, with “Z-014” for “Z-018”, “rat” for “pig”, “ERS12561814” for “ERS12561817”; settings: 2 µM

Compound	Bacterial Biotransformation
COc1ccc(Cc2nccc3cc(OC)c(OC)cc23)cc1OC [PAPAVERINE]	Compound NOT metabolized
O=C1C(CC[S+]([O-])c2ccccc2)C(=O)N(c2ccccc2)N1c1ccccc1 (stereo unspecified) [SULFINPYRAZONE]	Compound NOT metabolized

test: as §1, with “Z-019” for “Z-018”, “rat” for “pig”, “ERS12561818” for “ERS12561817”; settings: 2 µM

Compound	Bacterial Biotransformation
COc1ccc(Cc2nccc3cc(OC)c(OC)cc23)cc1OC [PAPAVERINE]	Compound NOT metabolized
O=C1C(CC[S+]([O-])c2ccccc2)C(=O)N(c2ccccc2)N1c1ccccc1 (stereo unspecified) [SULFINPYRAZONE]	Compound NOT metabolized

settings: human gut metagenome, 24 h, 2 µM; remark: another data set of the same source

Bacterial Biotransformation	Compound
Compound NOT metabolized	CCOC(=O)[C@H](CCc1ccccc1)N[C@@H](C)C(=O)N1CCC[C@H]1C(=O)O.O=C(O)/C=C\C(=O)O [ENALAPRIL MALEATE]
Compound metabolized	O=C1C(CC[S+]([O-])c2ccccc2)C(=O)N(c2ccccc2)N1c1ccccc1 (stereo unspecified) [SULFINPYRAZONE]

Compound	Bacterial Biotransformation
COc1ccc(Cc2nccc3cc(OC)c(OC)cc23)cc1OC [PAPAVERINE]	Compound metabolized

test: as §1, with “WLS-170” for “Z-018”, “human” for “pig”, “ERS12561762” for “ERS12561817”; settings: 2 µM

Bacterial Biotransformation	Compound
Compound NOT metabolized	CCOC(=O)[C@H](CCc1ccccc1)N[C@@H](C)C(=O)N1CCC[C@H]1C(=O)O.O=C(O)/C=C\C(=O)O [ENALAPRIL MALEATE]
Compound metabolized	O=C1C(CC[S+]([O-])c2ccccc2)C(=O)N(c2ccccc2)N1c1ccccc1 (stereo unspecified) [SULFINPYRAZONE]

Compound	Bacterial Biotransformation
COc1ccc(Cc2nccc3cc(OC)c(OC)cc23)cc1OC [PAPAVERINE]	Compound metabolized

settings: human gut metagenome, 24 h, 2 µM; remark: another data set of the same source

Bacterial Biotransformation	Compound
Compound NOT metabolized	CCOC(=O)[C@H](CCc1ccccc1)N[C@@H](C)C(=O)N1CCC[C@H]1C(=O)O.O=C(O)/C=C\C(=O)O [ENALAPRIL MALEATE]
Compound metabolized	O=C1C(CC[S+]([O-])c2ccccc2)C(=O)N(c2ccccc2)N1c1ccccc1 (stereo unspecified) [SULFINPYRAZONE]

Compound	Bacterial Biotransformation
COc1ccc(Cc2nccc3cc(OC)c(OC)cc23)cc1OC [PAPAVERINE]	Compound metabolized

test: as §1, with “Z-001” for “Z-018”, “mouse” for “pig”, “ERS12561801” for “ERS12561817”; settings: 2 µM

Bacterial Biotransformation	Compound
Compound NOT metabolized	CCOC(=O)[C@H](CCc1ccccc1)N[C@@H](C)C(=O)N1CCC[C@H]1C(=O)O.O=C(O)/C=C\C(=O)O [ENALAPRIL MALEATE]
Compound NOT metabolized	O=C1C(CC[S+]([O-])c2ccccc2)C(=O)N(c2ccccc2)N1c1ccccc1 (stereo unspecified) [SULFINPYRAZONE]

Compound	Bacterial Biotransformation
COc1ccc(Cc2nccc3cc(OC)c(OC)cc23)cc1OC [PAPAVERINE]	Compound metabolized

test: as §1, with “Z-017” for “Z-018”, “mouse” for “pig”, “ERS12561816” for “ERS12561817”; settings: 2 µM

Compound	Bacterial Biotransformation
COc1ccc(Cc2nccc3cc(OC)c(OC)cc23)cc1OC [PAPAVERINE]	Compound NOT metabolized
O=C1C(CC[S+]([O-])c2ccccc2)C(=O)N(c2ccccc2)N1c1ccccc1 (stereo unspecified) [SULFINPYRAZONE]	Compound NOT metabolized

settings: human gut metagenome, 24 h, 2 µM; remark: another data set of the same source

Bacterial Biotransformation	Compound
Compound NOT metabolized	CCOC(=O)[C@H](CCc1ccccc1)N[C@@H](C)C(=O)N1CCC[C@H]1C(=O)O.O=C(O)/C=C\C(=O)O [ENALAPRIL MALEATE]
Compound metabolized	O=C1C(CC[S+]([O-])c2ccccc2)C(=O)N(c2ccccc2)N1c1ccccc1 (stereo unspecified) [SULFINPYRAZONE]

Compound	Bacterial Biotransformation
COc1ccc(Cc2nccc3cc(OC)c(OC)cc23)cc1OC [PAPAVERINE]	Compound metabolized

settings: human gut metagenome, 24 h, 2 µM; remark: another data set of the same source

Bacterial Biotransformation	Compound
Compound NOT metabolized	CCOC(=O)[C@H](CCc1ccccc1)N[C@@H](C)C(=O)N1CCC[C@H]1C(=O)O.O=C(O)/C=C\C(=O)O [ENALAPRIL MALEATE]
Compound metabolized	O=C1C(CC[S+]([O-])c2ccccc2)C(=O)N(c2ccccc2)N1c1ccccc1 (stereo unspecified) [SULFINPYRAZONE]

Compound	Bacterial Biotransformation
COc1ccc(Cc2nccc3cc(OC)c(OC)cc23)cc1OC [PAPAVERINE]	Compound metabolized

test: as §1, with “Z-005” for “Z-018”, “to” for “to pig gut”, “ERS12561805” for “ERS12561817”; settings: 2 µM

Compound	Bacterial Biotransformation
CCOC(=O)[C@H](CCc1ccccc1)N[C@@H](C)C(=O)N1CCC[C@H]1C(=O)O.O=C(O)/C=C\C(=O)O [ENALAPRIL MALEATE]	Compound NOT metabolized
COc1ccc(Cc2nccc3cc(OC)c(OC)cc23)cc1OC [PAPAVERINE]	Compound metabolized
